From ChEMBL document CHEMBL1131983, “Synthesis of piperazine derivatives and evaluation of their antihistamine and antibradykinin effects” (Bioorg Med Chem Lett, 1999) come the findings set out here.

For orientation: inhibition means the relative decrease from the control value, in per cent.

What all share (format): tissue-based
Experiment [1] has as its target T1, B2 bradykinin receptor (Rattus norvegicus) (UniProt P25023).
T1 sequence (whole entry): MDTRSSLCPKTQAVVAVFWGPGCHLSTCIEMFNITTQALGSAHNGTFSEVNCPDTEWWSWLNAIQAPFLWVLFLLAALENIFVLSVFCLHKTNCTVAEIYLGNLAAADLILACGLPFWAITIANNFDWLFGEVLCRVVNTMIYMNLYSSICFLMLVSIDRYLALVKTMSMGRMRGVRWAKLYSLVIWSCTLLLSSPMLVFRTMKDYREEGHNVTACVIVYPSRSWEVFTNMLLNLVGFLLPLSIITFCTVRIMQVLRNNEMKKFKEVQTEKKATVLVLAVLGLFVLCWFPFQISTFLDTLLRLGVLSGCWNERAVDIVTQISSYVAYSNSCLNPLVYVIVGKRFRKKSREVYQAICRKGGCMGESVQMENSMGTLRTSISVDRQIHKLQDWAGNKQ
Kind of experiment: In vitro inhibitory activity against Bradykinin receptor B2 in isolated rat ileum at 0.1 uM.

Experiment [2] concerns the target Histamine H1 receptor (Cavia porcellus) (UniProt P31389). In words: In vitro inhibitory activity against histamine H1 receptor in guinea-pig ileum at 0.1 uM.
For experiment [3], the target named is T1, B2 bradykinin receptor (Rattus norvegicus). In words: In vitro inhibitory activity against Bradykinin receptor B2 in isolated rat ileum at 0.1uM; '-' indicates activation.

Histamine H1 receptor (Cavia porcellus), sequence (P31389 whole entry): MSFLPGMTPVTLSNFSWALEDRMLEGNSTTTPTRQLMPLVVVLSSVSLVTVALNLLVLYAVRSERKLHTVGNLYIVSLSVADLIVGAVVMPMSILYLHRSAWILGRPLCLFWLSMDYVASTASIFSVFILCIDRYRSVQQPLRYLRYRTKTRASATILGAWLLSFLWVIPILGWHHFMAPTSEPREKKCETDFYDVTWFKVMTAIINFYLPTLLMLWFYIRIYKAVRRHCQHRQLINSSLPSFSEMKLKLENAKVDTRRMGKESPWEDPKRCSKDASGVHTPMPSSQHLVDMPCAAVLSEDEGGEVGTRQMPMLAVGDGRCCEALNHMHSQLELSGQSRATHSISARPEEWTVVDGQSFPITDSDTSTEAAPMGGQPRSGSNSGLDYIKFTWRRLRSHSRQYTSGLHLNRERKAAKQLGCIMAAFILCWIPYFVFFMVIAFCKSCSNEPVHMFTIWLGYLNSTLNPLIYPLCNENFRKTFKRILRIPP

As for `O=C(O)Cc1ccc(COCCN2CCN(C(c3ccccc3)c3ccc(Cl)cc3)CC2)cc1` (centres undefined), the inhibition in experiment [1] is 36.6%; in experiment [2] it was 28.4%.

Turning to `Clc1ccc(C(c2ccccc2)N2CCN(CCOCc3ccc4ccccc4c3)CC2)cc1` (centres undefined), the inhibition in experiment [3] is -9.5%; in experiment [2], 10%.

For the molecule `CC(C)c1ccc(COCCN2CCN(C(c3ccccc3)c3ccc(Cl)cc3)CC2)cc1` (centres undefined), the inhibition in experiment [1] worked out at 5%; in experiment [2], 77.5%.

For the molecule `CC(CN1CCN(C(c2ccccc2)c2ccc(Cl)cc2)CC1)(OCC(=O)O)c1ccccc1` (centres undefined), the inhibition in experiment [1] is 45.6%; in experiment [2] it was 12.5%.

As for `Clc1ccc(C(c2ccccc2)N2CCN(CCOCc3cccc4ccccc34)CC2)cc1` (centres undefined), the inhibition in experiment [1] is 17%; in experiment [2], 20%.

On to `COc1ccc(COCCN2CCN(C(c3ccccc3)c3ccc(Cl)cc3)CC2)cc1` (centres undefined), for which the inhibition in experiment [1] amounted to 8.7%; in experiment [2], 78.5%.

As for `O=C(O)COC(CN1CCN(C(c2ccccc2)c2ccc(Cl)cc2)CC1)c1cccc2ccccc12` (centres undefined), the results for the inhibition in experiment [1] and in experiment [2] were 26.6% and 57%, respectively.

As for `O=C(O)COC(CCc1ccccc1)CN1CCN(C(c2ccccc2)c2ccc(Cl)cc2)CC1` (centres undefined), the inhibition in experiment [3] is -3.7%; in experiment [2] it was 11%.

Turning to `Clc1ccc(C(c2ccccc2)N2CCN(CCCOCc3cccc4ccccc34)CC2)cc1` (centres undefined), the results for the inhibition in experiment [1] and in experiment [2] were 11.9% and 63%, respectively.

Regarding `COc1cccc(COCCN2CCN(C(c3ccccc3)c3ccc(Cl)cc3)CC2)c1` (centres undefined), the results for the inhibition in experiment [3] and in experiment [2] were -10% and 33%, respectively.

As for `Clc1ccc(C(c2ccccc2)N2CCN(CCCOCc3ccc4ccccc4c3)CC2)cc1` (centres undefined), the figures for the inhibition in experiment [1] and in experiment [2] were 17.7% and 26.4%, respectively.

On to `CC(C)(COCC(=O)O)CN1CCN(C(c2ccccc2)c2ccc(Cl)cc2)CC1` (centres undefined), for which the inhibition stood at 33.4% in experiment [1] and 42.9% in experiment [2].

With `O=C(O)COCCN1CCN(C(c2ccccc2)c2ccc(Cl)cc2)CC1` (centres undefined), the inhibition in experiment [1] was 27%; in experiment [2], 50.7%.

As to `CCC(OCCN1CCN(C(c2ccccc2)c2ccc(Cl)cc2)CC1)C(=O)O` (centres undefined), the results for the inhibition in experiment [1] and in experiment [2] were 12.6% and 10.2%, respectively.

For the molecule `O=C(O)C(OCCN1CCN(C(c2ccccc2)c2ccc(Cl)cc2)CC1)c1ccccc1` (centres undefined), the inhibition stood at 9.1% in experiment [1] and 43.7% in experiment [2].

Regarding `CC(COCC(=O)O)CN1CCN(C(c2ccccc2)c2ccc(Cl)cc2)CC1` (centres undefined), the inhibition turned out to be 25% in experiment [1] and 14.3% in experiment [2].

`O=C(O)COC(CCN1CCN(C(c2ccccc2)c2ccc(Cl)cc2)CC1)c1ccccc1` (centres undefined): the inhibition in experiment [1] came out at 25.4%; in experiment [2], 52.7%.
